Laboratory results as given in US11366114B2, “Genetically encoded fluorescent sensors for detecting ligand bias and intracellular signaling through cAMP pathways” (MONTANA MOLECULAR LLC, priority 2013, dated 2022).

What was measured:
cAMP = assay: Fluorescence response of cAMP sensors to isoproterenol in HEK 293 cells co-expressing the beta adrenergic receptor; assay type: cell-based, human; conditions: for Relative Change in Fluorescence: in response to isoproternol; for dF/F: relative fluorescence response to isoproternol
Procedure: To test the functionality of these 28 prototype sensors, each construct was co-expressed with the beta adrenergic receptor, which couples to the Gs signaling pathway when activated by isoproteronol, in HEK 293 cells, and the fluorescence measured as described below. Briefly, 96-well glass-bottom plates were coated with Poly-D-Lysine (Fisher Scientific, Pittsburgh, Pa.) and HEK 293 were seeded and cultured in EMEM (ATCC, Manassas, Va.) supplemented with 10% fetal bovine serum and Penicillin-Streptomycin at 37 […] and 30 ng of beta adrenergic receptor per well, using Lipofectamine 2000 Transfection Reagent (Life Technologies, Grand Island, N.Y.) according to the manufacturer's protocol, and incubated for 24-48 hours at 37° C. in 5% CO2.
Prior to screening transfected cells for fluorescence, he EMEM culture medium was removed and 1×DPBS added to each well. A Zeiss Axiovert S100TV inverted microscope equipped with computer controlled excitation/emission filter wheels, shutters, and a Qimaging Retiga Exi CCD camera (Surrey, BC Canada) was used to image cells at 25e A) supplemented with 10% fetal bovine serum and Penicillin-Streptomycin at 37hn filters were used to resolve the green fluorescence from the cAMP sensors. Cells were analyzed for increases or decreases in fluorescence intensity upon addition of isoproternol, DMSO, forskolin and IBMX. To analyze the image stacks, background fluorescence was defined as a region of the image that contained no cells. The average value of this region was subtracted frame by frame from the measurements of the mean pixel values of the fluorescent cells. Fluorescence intensity data was plotted and analyzed with IGOR (Wavemetrics, Oswego, Oreg.).
For transient expression and screening in an automated fluorescence plate reader, HEK 293T cells were cultured in Corning Co-Star Polystyrene 96-well plates coated with Poly-D-Lysine. HEK293T cells were plated at 35,000 cells/well in 100 μl growth medium per well without antibiotics so that the cells would be 90-95% confluent at the time of transfection (approximately 24 hours later). For each transfection (i.e. one well in a 96-well plate), 160 ng of plasmid DNA (120 ng sensor+40 ng receptor) was diluted in […] and then the mixture was replaced with fresh medium. Prior to scanning a plate on the Biotek Synergy Mx, EMEM culture medium was replaced with 250 μl of 1×DPBS per well. Plates were read at 25° C., using monochromators set to 488/20 nm excitation and 530/20 nm emission to resolve the green fluorescence from the cAMP sensor.

[1] = biological target: T1, G-protein coupled calcitonin receptor (Homo sapiens, UniProt P30988); assay: Multiplexing of cAMP sensor with DAG sensor, calcitonin response curves; assay type: cell-based
T1 sequence (P30988 25-474): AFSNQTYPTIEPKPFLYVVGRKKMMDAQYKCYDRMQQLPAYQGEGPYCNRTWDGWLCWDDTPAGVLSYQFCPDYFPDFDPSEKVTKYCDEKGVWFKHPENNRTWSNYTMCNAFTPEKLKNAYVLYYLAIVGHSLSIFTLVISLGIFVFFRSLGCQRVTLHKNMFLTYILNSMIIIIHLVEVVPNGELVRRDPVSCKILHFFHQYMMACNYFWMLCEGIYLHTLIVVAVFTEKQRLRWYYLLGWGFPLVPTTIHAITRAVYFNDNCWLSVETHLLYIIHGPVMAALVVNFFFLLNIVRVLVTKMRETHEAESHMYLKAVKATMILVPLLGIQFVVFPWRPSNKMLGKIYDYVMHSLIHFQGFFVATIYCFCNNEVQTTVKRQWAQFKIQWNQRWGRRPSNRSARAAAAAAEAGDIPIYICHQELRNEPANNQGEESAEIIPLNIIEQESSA
Source text: FIG. 6 Multiplexing of a cAMP biosensor based on a single fluorescent protein with a second biosensor of a different color. The G-protein coupled calcitonin receptor was stimulated with different amounts of calcitonin (shown on the X axis) to produce response curves for a red cAMP and a green DAG sensor. The Y axis on the right indicates cAMP response. The Y axis on the left indicates DAG response.
The ability of cAMP sensor proteins of the present invention to be multiplexed with other fluorescence based sensors was tested. Briefly, cells were co-transfected with expression vector expressing a cAMP sensor protein of the present invention comprising a green fluorescent protein, and a DAG biosensor comprising a red fluorescent protein. The cells were cultured, treated with isoptroterenol and the resulting fluorescence measured as described in Example 1A. The results of this study are show in FIG. 6.

[2] = HEK 293 cells, beta adrenergic receptor co-expressed

## EPAC2gfpRAP1B: cpEGFP tethered between Epac2 and Rap1B; SEQID 27 in Table 1, SEQ ID NO: 28 in Table 3
cAMP
  Relative Change in Fluorescence: 26%

## EcpG9: prototype cAMP sensor, cpEGFP in Epac2 at L457; SEQID 30 in Table 1, SEQ ID NO: 31 in Table 3
cAMP
  Relative Change in Fluorescence: 13%
cAMP; [2]
  dF/F: 13

## EcpG10: prototype cAMP sensor, cpEGFP in Epac2 at R458; SEQID 25 in Table 1, SEQ ID NO: 26 in Table 3
cAMP
  Relative Change in Fluorescence: −30%
cAMP; [2]
  dF/F: −30

## EcpG12: prototype cAMP sensor, cpEGFP in Epac2 at V460; SEQID 11 in Table 1, SEQ ID NO: 12 in Table 3
cAMP
  Relative Change in Fluorescence: −36%
cAMP; [2]
  dF/F: −36

## EcpG13: prototype cAMP sensor, cpEGFP in Epac2 at E461; SEQID 28 in Table 1, SEQ ID NO: 29 in Table 3
cAMP
  Relative Change in Fluorescence: −22%
cAMP; [2]
  dF/F: −22

## EcpG15: prototype cAMP sensor, cpEGFP in Epac2 at N463; SEQID 17 in Table 1, SEQ ID NO: 18 in Table 3
cAMP
  Relative Change in Fluorescence: 34%
cAMP; [2]
  dF/F: 34

## EcpG18: prototype cAMP sensor, cpEGFP in Epac2 at A486; SEQID 32 in Table 1, SEQ ID NO: 33 in Table 3
cAMP
  Relative Change in Fluorescence: 12%
cAMP; [2]
  dF/F: 12

## EcpG22: prototype cAMP sensor, cpEGFP in Epac2 at V341; SEQID 31 in Table 1, SEQ ID NO: 32 in Table 3
cAMP
  Relative Change in Fluorescence: −14%
cAMP; only cell of the column printed with %
  dF/F: −14%

## EcpG23: prototype cAMP sensor, cpEGFP in Epac2 at L518; SEQID 29 in Table 1, SEQ ID NO: 30 in Table 3
cAMP
  Relative Change in Fluorescence: −16%
cAMP; [2]
  dF/F: −16

## EcpG24: prototype cAMP sensor, cpEGFP in Epac2 at A520; SEQID 33 in Table 1, SEQ ID NO: 34 in Table 3
cAMP
  Relative Change in Fluorescence: −11%
cAMP; [2]
  dF/F: −11

## calcitonin
[1]; higher concentrations
  G-protein pathways stimulated (cAMP sensor / DAG sensor): two different G-protein pathways have been activated
[1]; low concentrations
  G-protein pathways stimulated (cAMP sensor / DAG sensor): can stimulate just one G-protein pathway
